Experimental data from patent US4138590A, “Prostaglandin derivatives” (American Home Products Corporation, priority 1977, dated 1979).

Experiments:
[1] = test system: Human blood platelets; assay: Blood Platelet Aggregation (ADP induced, modification of Born and Cross); type: cell-based; settings: human PRP, ADP 2-4 μM
Method: Reference: Modification of Born, G.V.R., and Cross, M. J., J. Physiol., 168, 178-195 (1963).
Test Object: Human blood platelets.
Procedure: Platelet aggregation is the initial step in thrombus formation and it is considered that compounds which prevent aggregation or reduce platelet adhesiveness may inhibit the initiation of the arteriosclerotic process. The effect of drugs on aggregation is measured in platelet rich plasma (PRP) containing adenosine diphosphate (ADP) which markedly increases aggregation in vitro and may be a physiological agent for doing so in vivo.
Human blood is collected from fasted normal blood donors in siliconized 50 ml. Vacutainers that contain 3.8% sodium citrate. Centrifugation at 500 g. for 3 minutes at 5° C. separates the red blood cells from the PRP. The supernatant PRP is pipetted off and the remainder is centrifuged at 1000 g. for 10 minutes at 25° C. to obtain platelet poor plasma for standarization of the automated Payton aggregometer. In the running of the platelet aggregation test a cell containing 1.0 ml. of PRP is stirred at 1,100 rpm and the test compound is added in 0.2 ml. of buffered saline to give an initial concentration of 5 × 10^-3 M, or 5 × 10^-4 M. After 3 minutes, a concentration of ADP predetermined to yield marked platelet aggregation (2 to 4 μM) is added in 0.1 ml. of buffered saline. The curve of light transmission at 610 mμ is followed for 6 minutes. Compounds found to be active at the initial concentration are run at lower concentrations.
Standard Compound: 2-4 μM ADP-Reference Compound.

[2] = test system: bronchoconstricting effects of a standard dose of acetylcholine; assay: Evaluation of Bronchodilator Activity (aerosol inhalation, method of Rosenthale et al.); type: in vivo; settings: guinea pig, acetylcholine i.v. dose producing ca. 30% bronchoconstriction
From the text: In using the compounds of the invention to produce bronchodilating effects in warm-blooded animals, they may be administered in a variety of dosage forms: oral, injectable, and aerosol inhalation. Aerosol inhalation is a preferred method because of its rapid onset of action, great potency, and specificity of action. The particular dosage to obtain the bronchodilating effect will vary with the particular compound employed, the particular animal involved, and the degree of bronchodilation desired. In the guinea pig, by aerosol inhalation, the dose to produce bronchodilation is from about 0.15 micrograms to about 25 micrograms, and preferably from about 0.15 to about 15 micrograms. The bronchodilation produced upon aerosol inhalation can be observed by the method of Rosenthale et al., J. Pharmacol. Exp. Ther., 178, 541 (1971). Using this procedure the following results were obtained:
*The dose (i.v.) of acetylcholine which produces a ca. 30%

`CCCCC[C@H](O)/C=C/[C@H]1C(=O)C=C(c2ccccc2)[C@@H]1C/C=C\CCCC(=O)O` [7-{2β-[(3S)-3-Hydroxy-trans-1-Octenyl]-3-Oxo-5-Phenyl-4-Cyclopenten-1α-yl}-cis-5-Heptenoic Acid] was tested. Which inhibition at 18 µM ([1]; concentration 1.8 × 10^-5 M) did it give?
Its inhibition at 18 µM is 22%.

`C#CC1=CC(=O)[C@H](/C=C/[C@@H](O)CCCCC)[C@H]1C/C=C\CCCC(=O)O` [7-{5β-[(3S)-3-Hydroxy-trans-1-Octenyl]-2-Ethynyl-4-Oxo-2-Cyclopenten-1α-yl}-cis-5-Heptenoic Acid] was tested. Which inhibition at 22 µM ([1]; concentration 2.2 × 10^-5 M) did it give?
The inhibition at 22 µM was 36%.

How did the inhibition at 0.0057 µM ([1]; concentration 5.7 × 10^-9 M) turn out when `CCCCC[C@H](O)/C=C/[C@H]1C(=O)C=C(C)[C@@H]1C/C=C\CCCC(=O)O` [7-{5β-[(3S)-3-Hydroxy-trans-1-Octenyl]-2-Methyl-4-Oxo-2-Cyclopenten-1α-yl}-cis-5-Heptenoic Acid] was run?
The inhibition at 0.0057 µM was 56%.

And the “% Inhibition of the Bronchoconstricting effects of a standard dose of acetylcholine” value ([2]; dose 1.5 μg)?
Its value is 36%.

What about the “% Inhibition of the Bronchoconstricting effects of a standard dose of acetylcholine” value ([2]; dose 15 μg) of the same compound?
The value was 78%.
